Experimental data published in ChEMBL document CHEMBL3885881, “DrugMatrix”.

Species on record: Rattus norvegicus
Assay: DrugMatrix - Regimen: Daily Repeat
Type: toxicity, organism-based, Sprague-Dawley
Parameters: regimen Daily Repeat, gender Male, age 6-8 weeks
Details: in vivo, po, route oral GAVAGE, vehicle .5 % CMC; for ABSOLUTE BASOPHIL / ABSOLUTE EOSINOPHIL / ABSOLUTE LYMPHOCYTE / ABSOLUTE MONOCYTE / ABSOLUTE SEGMENTED NEUTROPHIL / BASOPHIL / EOSINOPHIL / ERYTHROCYTE COUNT / HEMATOCRIT / HEMOGLOBIN / LEUKOCYTE COUNT / LYMPHOCYTE / MEAN CORPUSCULAR HEMOGLOBIN / MEAN CORPUSCULAR HEMOGLOBIN CONCENTRATION / MEAN CORPUSCULAR VOLUME / MONOCYTE / NEUTROPHIL / NUCLEATED RED BLOOD CELLS / PLATELET COUNT: tissue Blood; for ALANINE AMINOTRANSFERASE / ALBUMIN / ALKALINE PHOSPHATASE / ASPARTATE AMINOTRANSFERASE / BLOOD UREA NITROGEN / CARBON DIOXIDE / CHLORIDE / CHOLESTEROL / CREATINE PHOSPHOKINASE / CREATININE / GLUCOSE / LACTATE DEHYDROGENASE / LIPASE / PHOSPHORUS / POTASSIUM / SODIUM / TOTAL BILIRUBIN / TOTAL PROTEIN / URIC ACID: tissue Plasma
[1] = 385.5 mg/kg, 120 h, dose level Low, time 5 day
[2] = 3855 mg/kg, 72 h, dose level High, time 3 day
[3] = 3855 mg/kg, 120 h, dose level High, time 5 day

## Cn1c(=O)c2c(ncn2CC(O)CO)n(C)c1=O (centres undefined) [DYPHYLLINE]
[1]
  ABSOLUTE BASOPHIL: 0 CELLS/uL
  ABSOLUTE EOSINOPHIL: 0 CELLS/uL
  ABSOLUTE LYMPHOCYTE: 14849.33 CELLS/uL
  ABSOLUTE MONOCYTE: 268.33 CELLS/uL
  ABSOLUTE SEGMENTED NEUTROPHIL: 1249 CELLS/uL
  BASOPHIL: 0%
  EOSINOPHIL: 0%
  ERYTHROCYTE COUNT: 5.2 x10E6/uL
  HEMATOCRIT: 34.47%
  HEMOGLOBIN: 13.7 G/DL
  LEUKOCYTE COUNT: 16.37 x10E3/uL
  LYMPHOCYTE: 90.67%
  MEAN CORPUSCULAR HEMOGLOBIN: 26.37 pg
  MEAN CORPUSCULAR HEMOGLOBIN CONCENTRATION: 39.77 G/DL
  MEAN CORPUSCULAR VOLUME: 66.3 fL
  MONOCYTE: 1.67%
  NEUTROPHIL: 7.67%
  NUCLEATED RED BLOOD CELLS: 0.33 /100WBC
  PLATELET COUNT: 1326 x10E3/uL
  ALANINE AMINOTRANSFERASE: 46.67 u/L
  ALBUMIN: 4.3 G/DL
  ALKALINE PHOSPHATASE: 287 u/L
  ASPARTATE AMINOTRANSFERASE: 70.67 u/L
  BLOOD UREA NITROGEN: 18.67 mg/dL
  CARBON DIOXIDE: 25.33 mmol/L
  CHLORIDE: 102.67 MEQ/L
  CHOLESTEROL: 75.33 mg/dL
  CREATINE PHOSPHOKINASE: 172.67 u/L
  CREATININE: 0.18 mg/dL
  GLUCOSE: 155 mg/dL
  LACTATE DEHYDROGENASE: 103.33 u/L
  LIPASE: 10 u/L
  PHOSPHORUS: 13.33 mg/dL
  POTASSIUM: 6.61 MEQ/L
  SODIUM: 146.27 MEQ/L
  TOTAL BILIRUBIN: 0.2 mg/dL
  TOTAL PROTEIN: 5.93 G/DL
  URIC ACID: 1.33 mg/dL
[2]
  ABSOLUTE BASOPHIL: 0 CELLS/uL
  ABSOLUTE EOSINOPHIL: 0 CELLS/uL
  ABSOLUTE LYMPHOCYTE: 16214.67 CELLS/uL
  ABSOLUTE MONOCYTE: 399.33 CELLS/uL
  ABSOLUTE SEGMENTED NEUTROPHIL: 2086 CELLS/uL
  BASOPHIL: 0%
  EOSINOPHIL: 0%
  ERYTHROCYTE COUNT: 5.33 x10E6/uL
  HEMATOCRIT: 33.37%
  HEMOGLOBIN: 13.57 G/DL
  LEUKOCYTE COUNT: 18.7 x10E3/uL
  LYMPHOCYTE: 87%
  MEAN CORPUSCULAR HEMOGLOBIN: 25.5 pg
  MEAN CORPUSCULAR HEMOGLOBIN CONCENTRATION: 40.67 G/DL
  MEAN CORPUSCULAR VOLUME: 62.63 fL
  MONOCYTE: 2%
  NEUTROPHIL: 11%
  NUCLEATED RED BLOOD CELLS: 0 /100WBC
  PLATELET COUNT: 1235.67 x10E3/uL
  ALANINE AMINOTRANSFERASE: 63.67 u/L
  ALBUMIN: 4.37 G/DL
  ALKALINE PHOSPHATASE: 376 u/L
  ASPARTATE AMINOTRANSFERASE: 102 u/L
  BLOOD UREA NITROGEN: 14 mg/dL
  CARBON DIOXIDE: 25.67 mmol/L
  CHLORIDE: 103.33 MEQ/L
  CHOLESTEROL: 72 mg/dL
  CREATINE PHOSPHOKINASE: 224.33 u/L
  CREATININE: 0.18 mg/dL
  GLUCOSE: 169.33 mg/dL
  LACTATE DEHYDROGENASE: 157.67 u/L
  LIPASE: 10 u/L
  PHOSPHORUS: 11.3 mg/dL
  POTASSIUM: 6.13 MEQ/L
  SODIUM: 145.4 MEQ/L
  TOTAL BILIRUBIN: 0.17 mg/dL
  TOTAL PROTEIN: 5.77 G/DL
  URIC ACID: 1.27 mg/dL
[3]
  ABSOLUTE BASOPHIL: 0 CELLS/uL
  ABSOLUTE EOSINOPHIL: 169.33 CELLS/uL
  ABSOLUTE LYMPHOCYTE: 15268 CELLS/uL
  ABSOLUTE MONOCYTE: 115.33 CELLS/uL
  ABSOLUTE SEGMENTED NEUTROPHIL: 1780.67 CELLS/uL
  BASOPHIL: 0%
  EOSINOPHIL: 1%
  ERYTHROCYTE COUNT: 5.34 x10E6/uL
  HEMATOCRIT: 34.57%
  HEMOGLOBIN: 13.7 G/DL
  LEUKOCYTE COUNT: 17.33 x10E3/uL
  LYMPHOCYTE: 88%
  MEAN CORPUSCULAR HEMOGLOBIN: 25.67 pg
  MEAN CORPUSCULAR HEMOGLOBIN CONCENTRATION: 39.63 G/DL
  MEAN CORPUSCULAR VOLUME: 64.77 fL
  MONOCYTE: 0.67%
  NEUTROPHIL: 10.33%
  NUCLEATED RED BLOOD CELLS: 0.33 /100WBC
  PLATELET COUNT: 1356 x10E3/uL
  ALANINE AMINOTRANSFERASE: 67.33 u/L
  ALBUMIN: 4.23 G/DL
  ALKALINE PHOSPHATASE: 246 u/L
  ASPARTATE AMINOTRANSFERASE: 85.67 u/L
  BLOOD UREA NITROGEN: 17 mg/dL
  CARBON DIOXIDE: 26.33 mmol/L
  CHLORIDE: 102.33 MEQ/L
  CHOLESTEROL: 58.67 mg/dL
  CREATINE PHOSPHOKINASE: 184.33 u/L
  CREATININE: 0.16 mg/dL
  GLUCOSE: 150.67 mg/dL
  LACTATE DEHYDROGENASE: 98.67 u/L
  LIPASE: 10 u/L
  PHOSPHORUS: 11.47 mg/dL
  POTASSIUM: 6.42 MEQ/L
  SODIUM: 144.77 MEQ/L
  TOTAL BILIRUBIN: 0.2 mg/dL
  TOTAL PROTEIN: 5.77 G/DL
  URIC ACID: 1 mg/dL
